Measured values published in ChEMBL document CHEMBL3885881, “DrugMatrix”.

Species: Rattus norvegicus
Assay: DrugMatrix - Regimen: Daily Repeat
Format: toxicity, organism-based, Sprague-Dawley
Set-up: regimen Daily Repeat, gender Male, age 6-8 weeks
Conditions: in vivo, po, route oral GAVAGE, vehicle 100 % WATER; for ABSOLUTE BASOPHIL / ABSOLUTE EOSINOPHIL / ABSOLUTE LYMPHOCYTE / ABSOLUTE MONOCYTE / ABSOLUTE SEGMENTED NEUTROPHIL / BASOPHIL / EOSINOPHIL / ERYTHROCYTE COUNT / HEMATOCRIT / HEMOGLOBIN / LEUKOCYTE COUNT / LYMPHOCYTE / MEAN CORPUSCULAR HEMOGLOBIN / MEAN CORPUSCULAR HEMOGLOBIN CONCENTRATION / MEAN CORPUSCULAR VOLUME / MONOCYTE / NEUTROPHIL / NUCLEATED RED BLOOD CELLS: tissue Blood; for ALANINE AMINOTRANSFERASE / ALKALINE PHOSPHATASE / ASPARTATE AMINOTRANSFERASE / BLOOD UREA NITROGEN / CARBON DIOXIDE / CHLORIDE / CHOLESTEROL / CREATINE PHOSPHOKINASE / CREATININE / GLUCOSE / LACTATE DEHYDROGENASE / LIPASE / PHOSPHORUS / POTASSIUM / SODIUM / TOTAL BILIRUBIN / TOTAL PROTEIN / URIC ACID: tissue Plasma
[1] = 0 mg/kg, 72 h, dose level Control, time 3 day
[2] = 0 mg/kg, 120 h, dose level Control, time 5 day
[3] = 18 mg/kg, 72 h, dose level Low, time 3 day

For `CN(C)CCCN1c2ccccc2Sc2ccc(Cl)cc21` [CHLORPROMAZINE], the “ABSOLUTE BASOPHIL” value [1] was 0 CELLS/uL, the “ABSOLUTE EOSINOPHIL” value [1] was 108.67 CELLS/uL and the “ABSOLUTE LYMPHOCYTE” value [1] was 10696 CELLS/uL. For the same compound, the “ABSOLUTE MONOCYTE” value [1] was 216.67 CELLS/uL, the “ABSOLUTE SEGMENTED NEUTROPHIL” value [1] was 1045.33 CELLS/uL and the BASOPHIL [1] was 0%. The EOSINOPHIL [1] was 1%, the “ERYTHROCYTE COUNT” value [1] was 5.87 x10E6/uL and the HEMATOCRIT [1] was 38.5%. The HEMOGLOBIN [1] was 13.6 G/DL, the “LEUKOCYTE COUNT” value [1] was 12.07 x10E3/uL and the LYMPHOCYTE [1] was 88.33%. The “MEAN CORPUSCULAR HEMOGLOBIN” value [1] was 23.47 pg, the “MEAN CORPUSCULAR HEMOGLOBIN CONCENTRATION” value [1] was 35.7 G/DL and the “MEAN CORPUSCULAR VOLUME” value [1] was 65.63 fL. For the same compound, the MONOCYTE [1] was 2%, the NEUTROPHIL [1] was 8.67% and the “NUCLEATED RED BLOOD CELLS” value [1] was 0 /100WBC. The “ALANINE AMINOTRANSFERASE” value [1] was 60.67 u/L, the “ALKALINE PHOSPHATASE” value [1] was 377.67 u/L and the “ASPARTATE AMINOTRANSFERASE” value [1] was 85.33 u/L. For the same compound, the “BLOOD UREA NITROGEN” value [1] was 15 mg/dL, the “CARBON DIOXIDE” value [1] was 37 mmol/L and the CHLORIDE [1] was 97.67 MEQ/L. For the same compound, the CHOLESTEROL [1] was 70.67 mg/dL, the “CREATINE PHOSPHOKINASE” value [1] was 361.67 u/L and the CREATININE [1] was 0.18 mg/dL. For the same compound, the GLUCOSE [1] was 154 mg/dL, the “LACTATE DEHYDROGENASE” value [1] was 99 u/L and the LIPASE [1] was 12.67 u/L. The PHOSPHORUS [1] was 9.53 mg/dL, the POTASSIUM [1] was 5.55 MEQ/L and the SODIUM [1] was 143.1 MEQ/L. The “TOTAL BILIRUBIN” value [1] was 0.2 mg/dL, the “TOTAL PROTEIN” value [1] was 5.97 G/DL and the “URIC ACID” value [1] was 0.77 mg/dL. The “ABSOLUTE BASOPHIL” value [2] was 0 CELLS/uL, the “ABSOLUTE EOSINOPHIL” value [2] was 0 CELLS/uL and the “ABSOLUTE LYMPHOCYTE” value [2] was 9535 CELLS/uL. For the same compound, the “ABSOLUTE MONOCYTE” value [2] was 182 CELLS/uL, the “ABSOLUTE SEGMENTED NEUTROPHIL” value [2] was 783 CELLS/uL and the BASOPHIL [2] was 0%. For the same compound, the EOSINOPHIL [2] was 0%, the “ERYTHROCYTE COUNT” value [2] was 5.35 x10E6/uL and the HEMATOCRIT [2] was 34.17%. The HEMOGLOBIN [2] was 13.17 G/DL, the “LEUKOCYTE COUNT” value [2] was 10.5 x10E3/uL and the LYMPHOCYTE [2] was 89.67%. The “MEAN CORPUSCULAR HEMOGLOBIN” value [2] was 24.67 pg, the “MEAN CORPUSCULAR HEMOGLOBIN CONCENTRATION” value [2] was 38.57 G/DL and the “MEAN CORPUSCULAR VOLUME” value [2] was 63.9 fL. For the same compound, the MONOCYTE [2] was 1.67%, the NEUTROPHIL [2] was 8.67% and the “NUCLEATED RED BLOOD CELLS” value [2] was 0 /100WBC. For the same compound, the “ALANINE AMINOTRANSFERASE” value [2] was 46.67 u/L, the “ALKALINE PHOSPHATASE” value [2] was 343.67 u/L and the “ASPARTATE AMINOTRANSFERASE” value [2] was 71 u/L. The “BLOOD UREA NITROGEN” value [2] was 11.67 mg/dL, the “CARBON DIOXIDE” value [2] was 27 mmol/L and the CHLORIDE [2] was 105.33 MEQ/L. The CHOLESTEROL [2] was 70.67 mg/dL, the “CREATINE PHOSPHOKINASE” value [2] was 208.67 u/L and the CREATININE [2] was 0.1 mg/dL. For the same compound, the GLUCOSE [2] was 161.33 mg/dL, the “LACTATE DEHYDROGENASE” value [2] was 58 u/L and the LIPASE [2] was 9.33 u/L. It also gave a PHOSPHORUS [2] of 12.7 mg/dL, a POTASSIUM [2] of 5.59 MEQ/L and an SODIUM [2] of 147.1 MEQ/L. For the same compound, the “TOTAL BILIRUBIN” value [2] was 0.17 mg/dL, the “TOTAL PROTEIN” value [2] was 5.97 G/DL and the “URIC ACID” value [2] was 0.73 mg/dL. For the same compound, the “ABSOLUTE BASOPHIL” value [3] was 0 CELLS/uL, the “ABSOLUTE EOSINOPHIL” value [3] was 0 CELLS/uL and the “ABSOLUTE LYMPHOCYTE” value [3] was 8093.33 CELLS/uL. The “ABSOLUTE MONOCYTE” value [3] was 80.67 CELLS/uL, the “ABSOLUTE SEGMENTED NEUTROPHIL” value [3] was 392.67 CELLS/uL and the BASOPHIL [3] was 0%. For the same compound, the EOSINOPHIL [3] was 0%, the “ERYTHROCYTE COUNT” value [3] was 5.16 x10E6/uL and the HEMATOCRIT [3] was 34.47%. For the same compound, the HEMOGLOBIN [3] was 13.4 G/DL, the “LEUKOCYTE COUNT” value [3] was 8.57 x10E3/uL and the LYMPHOCYTE [3] was 94.33%. For the same compound, the “MEAN CORPUSCULAR HEMOGLOBIN” value [3] was 25.97 pg, the “MEAN CORPUSCULAR HEMOGLOBIN CONCENTRATION” value [3] was 38.87 G/DL and the “MEAN CORPUSCULAR VOLUME” value [3] was 66.8 fL. The MONOCYTE [3] was 1%, the NEUTROPHIL [3] was 4.67% and the “NUCLEATED RED BLOOD CELLS” value [3] was 0 /100WBC. For the same compound, the “ALANINE AMINOTRANSFERASE” value [3] was 60.67 u/L, the “ALKALINE PHOSPHATASE” value [3] was 286 u/L and the “ASPARTATE AMINOTRANSFERASE” value [3] was 101 u/L. For the same compound, the “BLOOD UREA NITROGEN” value [3] was 15 mg/dL, the “CARBON DIOXIDE” value [3] was 38 mmol/L and the CHLORIDE [3] was 98 MEQ/L. The CHOLESTEROL [3] was 65.67 mg/dL, the “CREATINE PHOSPHOKINASE” value [3] was 499.33 u/L and the CREATININE [3] was 0.32 mg/dL. For the same compound, the GLUCOSE [3] was 131 mg/dL, the “LACTATE DEHYDROGENASE” value [3] was 79 u/L and the LIPASE [3] was 10 u/L. It also gave a PHOSPHORUS [3] of 8.37 mg/dL, a POTASSIUM [3] of 5.57 MEQ/L and an SODIUM [3] of 142.3 MEQ/L. For the same compound, the “TOTAL BILIRUBIN” value [3] was 0.23 mg/dL and the “TOTAL PROTEIN” value [3] was 5.97 G/DL.
